From patent US9452980B2, “Substituted benzamides” (Hoffmann-La Roche Inc., priority 2009, dated 2016)
Structures can show the parent of a compound that is named as a salt. Where two headings read alike, the source gives them in different places.

Assays:
rat TAAR1 = rat TAAR1 (Rattus norvegicus (Rat), UniProt Q923Y9); test: Radioligand binding assay on rat TAAR1
Method: (§1) For the construction of expression plasmids the coding sequences of human, rat and mouse TAAR1 were amplified from genomic DNA essentially as described by Lindemann et al.. The Expand High Fidelity PCR System (Roche Diagnostics) was used with 1.5 mM Mg^2+ and purified PCR products were cloned into pCR2.1-TOPO cloning vector (Invitrogen) following the instructions of the manufacturer. PCR products were subcloned into the pIRESneo2 vector (BD Clontech, Palo Alto, Calif.), and expression vectors were sequence verified before introduction in cell lines.
(§2) HEK293 cells (ATCC #CRL-1573) were cultured essentially as described by Lindemann et al. (2005). For the generation of stably transfected cell lines HEK293 cells were transfected with the pIRESneo2 expression plasmids containing the TAAR coding sequences (described above) with Lipofectamine 2000 (Invitrogen) according to the instructions of the manufacturer, and 24 hrs post transfection the culture medium was supplemented with 1 mg/ml G418 (Sigma, Buchs, Switzerland). After a culture period of about 10 d clones were isolated, expanded and tested for responsiveness to trace amines (all compounds purchased from Sigma) with the cAMP Biotrak Enzyme immunoassay (EIA) System (Amersham) following the non-acetylation EIA procedure provided by the manufacturer.
Radioligand Binding Assay on Rat TAAR1
(§3) Membrane Preparation and Radioligand Binding.
(§4) HEK-293 cells stably expressing rat TAAR1 were maintained at 37° C. and 5% CO2 in DMEM high glucose medium, containing fetal calf serum (10%, heat inactivated for 30 min at 56° C.), penicillin/streptomycin (1%), and 375 μg/ml geneticin (Gibco). Cells were released from culture flasks using trypsin/EDTA, harvested, washed twice with ice-cold PBS (without Ca^2+ and Mg^2+), pelleted at 1,000 rpm for 5 min at 4° C., frozen and stored at −80° C. Frozen pellets were suspended in 20 ml HEPES-NaOH (20 mM, pH 7.4) containing 10 mM EDTA and homogenized with a Polytron (PT 6000, Kinematica) at 14,000 rpm for 20 s. The homogenate was centrifuged at 48,000×g for 30 min at 4° C. Subsequently, the supernatant was removed and discarded, and the pellet resuspended in 20 ml HEPES-NaOH (20 mM, pH 7.4) containing 0.1 mM EDTA using the Polytron (20 s at 14,000 rpm). This procedure was repeated and the final pellet resuspended in HEPES-NaOH containing 0.1 mM EDTA and homogenized using the Polytron. Typically, aliquots of 2 ml membrane portions were stored at −80° C. With each new membrane batch the dissociation constant (Kd) was determined via a saturation curve. […] Nonspecific binding was defined as the amount of ^3[H]—(S)-4-[(ethyl-phenyl-amino)-methyl]-4,5-dihydro-oxazol-2-ylamine bound in the presence of 10 μM unlabeled ligand. All compounds were tested at a broad range of concentrations (10 pM to 10 μM) in duplicates. […] The 96 deep well plates were incubated for 1 hr at 4° C. Incubations were terminated by rapid filtration through Unifilter-96 plates (Packard Instrument Company) and glass filters GF/C (Perkin Elmer) presoaked for 1 hr in polyethylenimine (0.3%) and washed 3 times with 1 ml of cold binding buffer. After addition of 45 μl of Microscint 40 (PerkinElmer) the Unifilter-96 plate was sealed and after 1 hr the ratioactivity counted using a TopCount Microplate Scintillation Counter (Packard Instrument Company).

mouse TAAR1 = mouse TAAR1 (Mus musculus (Mouse), UniProt Q923Y8); test: Radioligand binding assay on mouse TAAR1
Method: as §1, §2
Radioligand Binding Assay on Mouse TAAR1
as §3
as §4, with “expressing mouse” for “expressing rat”

[1] = rat TAAR1, HEK-293 membranes, second value of cell mouse/rat, read-out: Ki (μM) rat
[2] = mouse TAAR1, HEK-293 membranes, first value of cell mouse/rat, read-out: Ki (μM) mouse

mouse TAAR1, sequence (Q923Y8 whole entry): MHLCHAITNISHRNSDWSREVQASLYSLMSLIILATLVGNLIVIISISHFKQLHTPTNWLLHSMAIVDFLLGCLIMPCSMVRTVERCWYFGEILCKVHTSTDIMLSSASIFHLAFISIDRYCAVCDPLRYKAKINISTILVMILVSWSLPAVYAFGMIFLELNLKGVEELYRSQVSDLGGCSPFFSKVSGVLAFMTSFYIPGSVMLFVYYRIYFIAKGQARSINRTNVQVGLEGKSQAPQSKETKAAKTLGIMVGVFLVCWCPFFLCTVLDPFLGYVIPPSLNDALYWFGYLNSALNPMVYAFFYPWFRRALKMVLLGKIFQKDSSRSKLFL
rat TAAR1, sequence (Q923Y9 whole entry): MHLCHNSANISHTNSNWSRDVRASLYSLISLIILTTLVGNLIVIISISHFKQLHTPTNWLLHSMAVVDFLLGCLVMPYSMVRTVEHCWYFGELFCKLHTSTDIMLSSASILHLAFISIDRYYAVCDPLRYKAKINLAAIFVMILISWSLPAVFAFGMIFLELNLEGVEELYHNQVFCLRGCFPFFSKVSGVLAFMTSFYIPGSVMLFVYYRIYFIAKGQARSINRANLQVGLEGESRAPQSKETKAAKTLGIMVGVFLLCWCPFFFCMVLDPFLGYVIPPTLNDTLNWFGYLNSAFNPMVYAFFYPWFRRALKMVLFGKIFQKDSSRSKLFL

Row | Structure (SMILES) | Ki (rat TAAR1; [1]) | Ki (mouse TAAR1; [2]) | also measured
1 | O=C(Nc1ccc(C2CCNC2)cc1)OCCc1cccc(Cl)c1 (racemic) [Example 121, (RS)-(4-Pyrrolidin-3-yl-phenyl)-carbamic acid 2-(3-chloro-phenyl)-ethyl ester] | 0.0004 µM | 0.0005 µM | –
2 | O=C(Nc1ccc(CCC2CCNC2)cc1)c1ccc(Cl)cn1 (racemic) [Example 117, (RS)-5-Chloro-pyridine-2-carboxylic acid [4-(2-pyrrolidin-3-yl-ethyl)-phenyl]-amide hydrochloride] | 0.0029 µM | 0.0531 µM | –
3 | O=C(Nc1ccc(C2CCNC2)cc1)OCCc1ccc(Cl)c(Cl)c1 (racemic) [Example 126, (RS)-(4-Pyrrolidin-3-yl-phenyl)-carbamic acid 2-(3,4-dichloro-phenyl)-ethyl ester] | 0.0022 µM | 0.0019 µM | –
4 | Cc1cc(C(=O)Nc2ccc([C@@H]3CCCNC3)cc2)cc(Cl)n1 [Example 282, (S)-2-Chloro-6-methyl-N-(4-(piperidin-3-yl)phenyl)isonicotinamide] | 0.0048 µM | – | Ki (mouse TAAR1; read-out: Ki (μM) mouse): 0.243 µM
5 | O=C(Nc1ccc([C@H]2CNCCO2)cc1)c1ccc(Cl)nc1 [Example 208, (S)-6-Chloro-N-(4-(morpholin-2-yl)phenyl)nicotinamide hydrochloride] | – | 0.0762 µM | Ki (rat TAAR1; read-out: Ki (μM) rat): 0.0044 µM
6 | O=C(Nc1ccc(C2CNCCO2)cc1)Nc1ccc(Cl)nc1 (racemic) [Example 302, (RS)-1-(6-Chloropyridin-3-yl)-3-(4-(morpholin-2-yl)phenyl)urea hydrochloride] | 0.0056 µM | 0.0574 µM | –
7 | CCOc1ccc(C(=O)Nc2ccc([C@H]3CNCCO3)cc2)cc1 [Example 276, (S)-4-Ethoxy-N-(4-(morpholin-2-yl)phenyl)benzamide hydrochloride] | – | 0.0558 µM | Ki (rat TAAR1; read-out: Ki (μM) rat): 0.0008 µM
8 | O=C(Nc1ccc(CCC2CCCN2)cc1)c1cnc(Cl)cn1 (racemic) [Example 164, (RS)-5-Chloro-N-(4-(2-(pyrrolidin-2-yl)ethyl)phenyl)pyrazine-2-carboxamide hydrochloride] | 0.0121 µM | 0.0871 µM | –
9 | O=C(Nc1ccc(C2CNCCO2)cc1)c1ccc(Cl)cc1F (racemic) [Example 146, (RS)-4-Chloro-2-fluoro-N-(4-morpholin-2-yl-phenyl)-benzamide hydrochloride] | 0.001 µM | – | Ki (mouse TAAR1; read-out: Ki (μM) mouse): 0.0268 µM
10 | O=C(Nc1ccc([C@@H]2CCCNC2)cc1)c1ccc(Cl)c(Cl)c1 [Example 152, 3,4-Dichloro-N—((S)-4-piperidin-3-yl-phenyl)-benzamide hydrochloride] | 0.0003 µM | – | Ki (mouse TAAR1; read-out: Ki (μM) mouse): 0.0086 µM
11 | O=C(Nc1ccc(Cl)cc1)Nc1ccc(C2CNCCO2)cc1 (racemic) [Example 292, (RS)-1-(4-Chlorophenyl)-3-(4-(morpholin-2-yl)phenyl)urea hydrochloride] | 0.001 µM | 0.001 µM | –
12 | O=C(NCc1ccc([C@@H]2CNCCO2)cc1)c1cccc(Cl)c1 [Example 313, (R)-3-Chloro-N-(4-(morpholin-2-yl)benzyl)benzamide hydrochloride] | 0.0154 µM | 0.547 µM | –
13 | O=C(Nc1ccc(CCC2CCCN2)cc1)c1cccc(Cl)c1 (racemic) [Example 157, (RS)-3-Chloro-N-[4-(2-pyrrolidin-2-yl-ethyl)-phenyl]-benzamide] | 0.0007 µM | 0.142 µM | –
14 | O=C(Nc1ccc(C2CCNC2)cc1)c1cc(Cl)ccn1 (racemic) [Example 86, (RS)-4-Chloro-pyridine-2-carboxylic acid (4-pyrrolidin-3-yl-phenyl)-amide hydrochloride] | 0.116 µM | 0.0051 µM | –
15 | COC(C(=O)Nc1ccc(C2CCNC2)cc1)c1ccc(Cl)cc1 (racemic) [Example 60, (RS)-2-(4-Chloro-phenyl)-2-methoxy-N—((RS)-4-pyrrolidin-3-yl-phenyl)-acetamide] | 0.0457 µM | 2.83 µM | –
16 | O=C(NCc1ccc([C@@H]2CNCCO2)cc1)c1ccc(Cl)cc1 [Example 314, (R)-4-Chloro-N-(4-(morpholin-2-yl)benzyl)benzamide hydrochloride] | 0.0062 µM | 1.89 µM | –
17 | O=C(Nc1ccc([C@@H]2CCCNC2)cc1)c1cccc(Cl)c1 [Example 153, (S)-3-Chloro-N-(4-(piperidin-3-yl)phenyl)benzamide hydrochloride] | 0.0005 µM | – | Ki (mouse TAAR1; read-out: Ki (μM) mouse): 0.0715 µM
18 | CN1CCN(c2ccc(NC(=O)Nc3ccc(-c4cnco4)cc3)cc2)CC1 [Example 4, 1-[4-(4-Methyl-piperazin-1-yl)-phenyl]-3-(4-oxazol-5-yl-phenyl)-urea] | 0.0837 µM | 0.0189 µM | –
19 | O=C(Nc1ccc(C2CCCNC2)cc1)c1ccc(Cl)nc1 (racemic) [Example 74, (RS)-6-Chloro-N-(4-piperidin-3-yl-phenyl)-nicotinamide hydrochloride] | 0.0672 µM | 0.0049 µM | –
20 | COc1ccc(C(=O)Nc2ccc(C3CCNC3)cc2)c(OC)n1 (racemic) [Example 95, (RS)-2,6-Dimethoxy-N-(4-pyrrolidin-3-yl-phenyl)-nicotinamide] | 0.322 µM | 0.0385 µM | –
21 | O=C(Nc1ccc(C2CCNC2)cc1)c1nc2ccccc2[nH]1 (racemic) [Example 76, (RS)-1H-Benzoimidazole-2-carboxylic acid (4-pyrrolidin-3-yl-phenyl)-amide hydrochloride] | 0.296 µM | 0.136 µM | –
22 | O=C(Nc1ccc(CC2CCNC2)cc1)c1ccc(Cl)cc1 (racemic) [Example 149, (RS)-4-Chloro-N-(4-pyrrolidin-3-ylmethyl-phenyl)-benzamide hydrochloride] | 0.001 µM | 0.0011 µM | –
23 | O=C(Nc1ccc(C2CCNC2)cc1)Oc1ccc(Cl)cc1 (racemic) [Example 23, (RS)-(4-Pyrrolidin-3-yl-phenyl)-carbamic acid 4-chloro-phenyl ester hydrochloride] | – | – | Ki (rat TAAR1): 0.0025 µM; Ki (mouse TAAR1): 0.0022 µM
24 | O=C(Nc1ccc([C@H]2CNCCO2)cc1)c1cccc(Cl)c1 [Example 263, (S)-3-Chloro-N-(4-(morpholin-2-yl)phenyl)benzamide hydrochloride] | – | – | Ki (rat TAAR1; read-out: Ki (μM) rat): 0.0011 µM; Ki (mouse TAAR1; read-out: Ki (μM) mouse): 0.0152 µM
25 | COc1cc(C(=O)Nc2ccc([C@H]3CCCNC3)cc2)ccc1Cl [Example 200, (R)-4-Chloro-3-methoxy-N-(4-(piperidin-3-yl)phenyl)benzamide hydrochloride] | 0.0022 µM | 0.0039 µM | –
